Data set [1] concerns Panel (12 tumour cell lines). Briefly: Cytotoxicity against panel of 12 cell lines (LCL H460, MACL MCF7, LXFL 529L, LXFA 629L, MEXF 462NL, MEXF 514L, MAXF 401NL, RXF 944L, RXF 486L, UXF 1138L, PR PC3M, PRCL 22RV1). Format: functional. The note with it: Homo sapiens.
In data set [2] the test system is Panel (10 carcinoma cell lines). Put plainly: Inhibition of cell viability of panel of 10 cell lines (LCL H460, MACL MCF7, LXFL 529L, LXFA 629L, MEXF 462NL, MEXF 514L, MAXF 401NL, RXF 944L, RXF 486L, UXF 1138L) at 1 ug/mL. The note with it: Homo sapiens. It counts as functional.
Data set [3] deals with Mus musculus. Put plainly: Toxicity in nude mouse xenografted with human UXF1138 at 1 mg/kg/day. Format: organism-based. The note with it: in vivo. (In general: A xenograft is tissue or cells of one species grown in another, often human tumour cells in immunodeficient mice.)
For data set [4], the system named is Mus musculus. Briefly: Toxicity in nude mouse xenografted with human UXF1138 at 3 mg/kg/day. It counts as organism-based. The note with it: in vivo.
The test system of data set [5] is Mus musculus. Briefly: Toxicity in nude mouse xenografted with human UXF1138 at 0.3 mg/kg/day. Format: organism-based. The note with it: in vivo.
Data set [6] relates to Mus musculus. Put plainly: Decrease in body weight of nude mouse xenografted with human UXF1138 at 0.15 mg/kg/day, ip after 7 days. It counts as functional. More on the design: scale not given: the % may be the effect or the level left. The note with it: route intraperitoneal.
Data set [7] relates to UXF1138. Put plainly: Antitumor activity against human UXF1138 cell line xenografted in nude mouse at 0.15 mg/kg/day, ip after 7 days. The note with it: route intraperitoneal.

Broadly, the IC70 is the concentration at which the effect reaches the 70% level. One may read the inhibition as the share of the control response that was lost under treatment. In data set [1], `COC1=CC(=O)c2c(O)c3c(c(O)c2C1=O)C(=O)[C@]1(CCc2c1c(O)c1c(O)nc(/C=N/OCCN4CCOCC4)cc1c2Br)C3=O` had an IC70 of 101 nM. In data set [2], this compound yielded an inhibition at 1 µg/mL of 88%.

In data set [2], `COC1=CC(=O)c2c(O)c3c(c(O)c2C1=O)C(=O)[C@]1(CCc2c1c(O)c1c(O)nc(C=O)cc1c2Cl)C3=O` gave an inhibition at 1 µg/mL of 25%.

On to `C/C=C/C=C/c1cc2c(Cl)c3c(c(O)c2c(O)n1)[C@@]1(CC3)C(=O)c2c(O)c3c(c(O)c2C1=O)C(=O)C(OC)=CC3=O`, for which the concentration for an effect of 70% (IC70) in data set [1] is 14 nM. Further, the inhibition at 1 µg/mL in data set [2] was determined as 91%.

In data set [2], `COC1=CC(=O)c2c(O)c3c(c(O)c2C1=O)C(=O)[C@]1(CCc2c1c(O)c1c(O)nc(C=O)cc1c2Br)C3=O` displayed an inhibition at 1 µg/mL of 42%.

`C/C=C/C=C/c1cc2cc3c(c(O)c2c(O)n1)[C@@]1(CC3)C(=O)C2=C(C(=O)c3c(O)c(OCCN(C)C)cc(O)c3C2=O)C1=O` yielded an IC70 in data set [1] of 1020 nM. Moreover, at 1 µg/mL the inhibition in data set [2] was 94%.

`COC1=CC(=O)c2c(O)c3c(c(O)c2C1=O)C(=O)[C@]1(CCc2cc4cc(C(O)C(O)C(O)C(C)O)nc(O)c4c(O)c21)C3=O` (stereo partly drawn) returned an IC70 in data set [1] of 186 nM. The inhibition at 1 µg/mL in data set [2] amounted to 85%.

Compound `COC1=CC(=O)c2c(O)c3c(c(O)c2C1=O)C(=O)[C@]1(CCc2c1c(O)c1c(O)nc(/C=N/N4CCN(C)CC4)cc1c2Br)C3=O` came in with an IC70 in data set [1] of 658 nM. This compound yielded an inhibition at 1 µg/mL in data set [2] of 73%.

Take `COC1=CC(=O)c2c(O)c3c(c(O)c2C1=O)C(=O)[C@]1(CCc2c1c(O)c1c(O)nc(/C=C/c4csc(NC(C)=O)n4)cc1c2Br)C3=O`: in data set [1], the IC70 stood at 512 nM. In addition, in data set [2], testing at 1 µg/mL gave an inhibition of 83%.

On to `COC1=CC(=O)c2c(O)c3c(c(O)c2C1=O)C(=O)[C@]1(CCc2c1c(O)c1c(O)nc(/C=N/OC(C)C)cc1c2Br)C3=O`, for which the 70% effect concentration (IC70) in data set [1] came out at 74 nM. In addition, testing at 1 µg/mL in data set [2] gave an inhibition of 91%.

Consider `COC1=CC(=O)c2c(O)c3c(c(O)c2C1=O)C(=O)[C@]1(CCc2c1c(O)c1c(O)nc(/C=C/c4csc(C)n4)cc1c2Br)C3=O`, for which the IC70 in data set [1] was determined as 124 nM. In data set [2], this compound yielded an inhibition at 1 µg/mL of 85%.

Regarding `C/C=C/C=C/c1cc2c(Br)c3c(c(O)c2c(O)n1)[C@@]1(CC3)C(=O)C2=C(C(=O)c3c(O)c(NC4CC4)cc(O)c3C2=O)C1=O`, it took 96 nM to reach the 70% level in data set [1] (IC70). Also, 1 µg/mL produced 97% inhibition in data set [2].

`C/C=C/C=C/c1cc2c(Br)c3c(c(O)c2c(O)n1)[C@@]1(CC3)C(=O)C2=C(C(=O)c3c(O)c(NCCCC)cc(O)c3C2=O)C1=O`: the IC70 in data set [1] amounted to 302 nM. In data set [2], this compound yielded an inhibition at 1 µg/mL of 94%.

In data set [1], `C/C=C/C=C/c1cc2c(Br)c3c(c(O)c2c(O)n1)[C@@]1(CC3)C(=O)c2c(O)c3c(c(O)c2C1=O)C(=O)C(OCC)=CC3=O` registered an IC70 of 160 nM. For the same compound, 1 µg/mL produced 97% inhibition in data set [2].

In data set [1], `C/C=C/C=C/c1cc2cc3c(c(O)c2c(O)n1)[C@@]1(CC3)C(=O)C2=C(C(=O)c3c(O)c(N(C)C)cc(O)c3C2=O)C1=O` registered a concentration for an effect of 70% (IC70) of 306 nM. In data set [2], the inhibition at 1 µg/mL worked out at 96%.

In turn, `COC1=CC(=O)c2c(O)c3c(c(O)c2C1=O)C(=O)[C@]1(CCc2c1c(O)c1c(O)nc(/C=N/OCc4ccccc4)cc1c2Br)C3=O` registered an IC70 in data set [1] of 50 nM. The compound further gave an inhibition at 1 µg/mL in data set [2] of 91%.

With `COC1=CC(=O)c2c(O)c3c(c(O)c2C1=O)C(=O)[C@]1(CCc2cc4cc(/C=C/C(C)=O)nc(O)c4c(O)c21)C3=O`, testing at 1 µg/mL in data set [2] gave an inhibition of 59%.

With `C/C=C/C=C/c1cc2cc3c(c(O)c2c(O)n1)[C@@]1(CC3)C(=O)C2=C(C(=O)c3c(O)c(N4CCOCC4)cc(O)c3C2=O)C1=O`, it took 77 nM to reach the 70% level in data set [1] (IC70). Moreover, in data set [2], testing at 1 µg/mL gave an inhibition of 98%.

For `C/C=C/C=C/c1cc2c(I)c3c(c(O)c2c(O)n1)[C@@]1(CC3)C(=O)c2c(O)c3c(c(O)c2C1=O)C(=O)C(OC)=CC3=O`, the Activity result in data set [3] is listed as “Toxic”; in data set [4] it was “Toxic”; in data set [5], “Non-toxic”; in data set [6], -3.1%; in data set [7] it was 51%. This compound also displayed an IC70 in data set [1] of 11 nM. This compound registered an inhibition at 1 µg/mL in data set [2] of 93%.

As for `COC1=CC(=O)c2c(O)c3c(c(O)c2C1=O)C(=O)[C@]1(CCc2c1c(O)c1c(O)nc(/C=C/c4csc(N)n4)cc1c2Br)C3=O`, the IC70 in data set [1] came to 612 nM. The compound also gave an inhibition at 1 µg/mL in data set [2] of 77%.

In data set [1], `C/C=C/C=C/c1cc2c(Br)c3c(c(O)c2c(O)n1)[C@@]1(CC3)C(=O)c2c(O)c3c(c(O)c2C1=O)C(=O)C(OC)=CC3=O` came in with an IC70 of 8.1 nM. In addition, in data set [2], the inhibition at 1 µg/mL came to 92%.

Take `C/C=C/C=C/c1cc2c(F)c3c(c(O)c2c(O)n1)[C@@]1(CC3)C(=O)c2c(O)c3c(c(O)c2C1=O)C(=O)C(OC)=CC3=O`: in data set [1], the IC70 was 20 nM. Testing at 1 µg/mL in data set [2] gave an inhibition of 91%.

Consider `C/C=C/C=C/c1cc2cc3c(c(O)c2c(O)n1)[C@@]1(CC3)C(=O)C2=C(C(=O)c3c(O)c(NC(C)C)cc(O)c3C2=O)C1=O`, for which it took 634 nM to reach the 70% level in data set [1] (IC70). In data set [2], this compound returned an inhibition at 1 µg/mL of 91%.

Compound `COC1=CC(=O)c2c(O)c3c(c(O)c2C1=O)C(=O)[C@]1(CCc2cc4cc(C=O)nc(O)c4c(O)c21)C3=O` had an inhibition at 1 µg/mL in data set [2] of 31%.

For the compound `CC[C@@]1(O)C(=O)OCc2c1cc1n(c2=O)Cc2cc3ccccc3nc2-1` [CAMPTOTHECIN], the IC70 in data set [1] stood at 8.6 nM.

Consider `COc1cccc2c1C(=O)c1c(O)c3c(c(O)c1C2=O)C[C@@](O)(C(=O)CO)C[C@@H]3O[C@H]1C[C@H](N)[C@H](O)[C@H](C)O1` [DOXORUBICIN], for which, in data set [1], the 70% effect level (IC70) was put at 39 nM. Moreover, the inhibition at 1 µg/mL in data set [2] is 91%.

The compound `C/C=C/C=C/c1cc2cc3c(c(O)c2c(=O)[nH]1)[C@@]1(CC3)C(=O)c2c(O)c3c(c(O)c2C1=O)C(=O)C(OC)=CC3=O` [FDM A] gave an IC70 in data set [1] of 517 nM. This compound also yielded an inhibition at 1 µg/mL in data set [2] of 82%.

In turn, `CC(=O)O[C@H]1C(=O)[C@@]2(C)[C@H]([C@H](OC(=O)c3ccccc3)[C@]3(O)C[C@H](OC(=O)[C@H](O)[C@@H](NC(=O)c4ccccc4)c4ccccc4)C(C)=C1C3(C)C)[C@]1(OC(C)=O)CO[C@@H]1C[C@@H]2O` [PACLITAXEL] yielded an IC70 in data set [1] of 0.7 nM.
